Experiments:
Assay in all cases: Post-emergence efficacy, glasshouse, evaluated after 13 days
Type in all cases: in vivo
[1] = system: Ipomoea hederacea (IPOHE); conditions: Ipomoea hederacea, 312 h; post-emergence application, 500 g/Ha, evaluated after 13 days; read-out: Control of weed species IPOHE (100=total damage to plant; 0=no damage to plant)
Protocol: (§1) Seeds of a variety of test species were sown in standard soil in pots. After cultivation for 14 days (post-emergence) under controlled conditions in a glasshouse (at 24/16° C., day/night; 14 hours light; 65% humidity), the plants were sprayed with an aqueous spray solution derived from the dissolution of the technical active ingredient formula (I) in a small amount of acetone and a special solvent and emulsifier mixture referred to as IF50 (11.12% Emulsogen EL360 TM+44.44% N-methylpyrrolidone+44.44% Dowanol DPM glycol ether), to create a 50 g/l solution which was then diluted to required concentration using 0.25% or 1% Empicol ESC70 (Sodium lauryl ether sulphate)+1% ammonium sulphate as diluent.
(§2) The test plants were then grown in a glasshouse under controlled conditions (at 24/16° C., day/night; 14 hours light; 65% humidity) and watered twice daily. After 13 days the test was evaluated (100=total damage to plant; 0=no damage to plant).
(§3) Ipomoea hederacea (IPOHE), Euphorbia heterophylla (EPHHL), Chenopodium album (CHEAL), Amaranthus palmeri (AMAPA), Lolium perenne (LOLPE), Digitaria sanguinalis (DIGSA), Eleusine indica (ELEIN), Echinochloa crus-galli (ECHCG), Setaria faberi (SETFA)

[2] = system: Amaranthus palmeri (AMAPA); conditions: Amaranthus palmeri, 312 h; post-emergence application, 500 g/Ha, evaluated after 13 days; read-out: Control of weed species AMAPA (100=total damage to plant; 0=no damage to plant)
Protocol: as §1, §2, §3

[3] = system: Digitaria sanguinalis (DIGSA); conditions: Digitaria sanguinalis, 312 h; post-emergence application, 500 g/Ha, evaluated after 13 days; read-out: Control of weed species DIGSA (100=total damage to plant; 0=no damage to plant)
Protocol: as §1, §2, §3

Setaria faberi (SETFA) = conditions: Setaria faberi, 312 h; post-emergence application, 500 g/Ha, evaluated after 13 days; read-out: Control of weed species SETFA (100=total damage to plant; 0=no damage to plant)
Protocol: as §1, §2, §3

[4] = system: Echinochloa crus-galli (ECHCG); conditions: Echinochloa crus-galli, 312 h; post-emergence application, 500 g/Ha, evaluated after 13 days; read-out: Control of weed species ECHCG (100=total damage to plant; 0=no damage to plant)
Protocol: as §1, §2, §3

[5] = system: Euphorbia heterophylla (EPHHL); conditions: Euphorbia heterophylla, 312 h; post-emergence application, 500 g/Ha, evaluated after 13 days; read-out: Control of weed species EPHHL (100=total damage to plant; 0=no damage to plant)
Protocol: as §1, §2, §3

Eleusine indica (ELEIN) = conditions: Eleusine indica, 312 h; post-emergence application, 500 g/Ha, evaluated after 13 days; read-out: Control of weed species ELEIN (100=total damage to plant; 0=no damage to plant)
Protocol: as §1, §2, §3

Lolium perenne (LOLPE) = conditions: Lolium perenne, 312 h; post-emergence application, 500 g/Ha, evaluated after 13 days; read-out: Control of weed species LOLPE (100=total damage to plant; 0=no damage to plant)
Protocol: as §1, §2, §3

[6] = system: Chenopodium album (CHEAL); conditions: Chenopodium album, 312 h; post-emergence application, 500 g/Ha, evaluated after 13 days; read-out: Control of weed species CHEAL (100=total damage to plant; 0=no damage to plant)
Protocol: as §1, §2, §3

Row | Structure (SMILES) | pest or weed control at 500 g/ha [1] [%] | pest or weed control at 500 g/ha [2] [%] | pest or weed control at 500 g/ha [3] [%] | pest or weed control at 500 g/ha (Setaria faberi (SETFA)) [%] | pest or weed control at 500 g/ha [4] [%] | pest or weed control at 500 g/ha [5] [%] | pest or weed control at 500 g/ha (Eleusine indica (ELEIN)) [%] | pest or weed control at 500 g/ha (Lolium perenne (LOLPE)) [%] | pest or weed control at 500 g/ha [6] [%]
1 | CC(O)CCNC(=O)c1cc[n+](CCC(=O)O)nc1 (stereo not drawn) [Compound A127] | 30 | 100 | 100 | 100 | 50 | 70 | 100 | 80 | 80
2 | O=C(O)CC[n+]1ccc(C(=O)N2CC[S+]([O-])CC2)cn1 [Compound A109] | 60 | 100 | 80 | 90 | 70 | 90 | 90 | 30 | 90
3 | Cn1nccc1NC(=O)c1cc[n+](CCC(=O)O)nc1 [Compound A116] | 10 | 40 | 60 | 40 | 40 | 50 | 40 | 10 | 20
4 | COCC(C)NC(=O)c1cc[n+](CCC(=O)O)nc1 (stereo not drawn) [Compound A132] | 40 | 100 | 100 | 100 | 90 | 70 | 100 | 90 | 100
5 | CC(CO)NC(=O)c1cc[n+](CCC(=O)O)nc1 (stereo not drawn) [Compound A123] | 50 | 100 | 100 | 100 | 90 | 90 | 100 | 50 | 90
6 | CC(C)(C)NC(=O)c1cc[n+](CCC(=O)O)nc1 [Compound A15] | 30 | 100 | 90 | 100 | 90 | 90 | 100 | 70 | 100
7 | CNC(=O)c1cc[n+](CCS(=O)(=O)[O-])nc1 [Compound A1, 2-[4-(methylcarbamoyl)pyridazin-1-ium-1-yl]ethanesulfonate] | 60 | 100 | 90 | 80 | 60 | 70 | 70 | 80 | 70
8 | CN(C(=O)c1cc[n+](CCS(=O)(=O)O)nc1)c1ccccc1 [Compound A8] | 30 | 100 | 20 | 20 | 10 | 80 | 40 | 0 | 90
9 | CCCNC(=O)c1cc[n+](CCS(=O)(=O)[O-])nc1 [Compound A51] | 60 | 50 | 90 | 60 | 60 | 60 | 20 | 20 | 70
